Key:
human CB2 receptors = human CB2 receptors (Homo sapiens (Human), UniProt P34972); assay: cAMP assay, CHO cells expressing human CB2 receptors; type: cell-based; conditions: CHO cells expressing human CB2, cAMP; read-out: human CB2 EC50
Summary of the method: (§1)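 CHO cells, KRB buffer + 1 mM IBMX, 30 min 30 °C preincubation; compound 30 min 30 °C; lysis + TR-FRET cAMP detection, 2 h RT; cAMP from standard curve (10 μM–0.13 nM); EC50.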

human CB1 receptors = human CB1 receptors (Homo sapiens (Human), UniProt P21554); assay: cAMP assay, CHO cells expressing human CB1 receptors; type: cell-based; conditions: CHO cells expressing human CB1, cAMP; read-out: human CB1 EC50
Chain of human CB1 receptors (P21554 whole entry): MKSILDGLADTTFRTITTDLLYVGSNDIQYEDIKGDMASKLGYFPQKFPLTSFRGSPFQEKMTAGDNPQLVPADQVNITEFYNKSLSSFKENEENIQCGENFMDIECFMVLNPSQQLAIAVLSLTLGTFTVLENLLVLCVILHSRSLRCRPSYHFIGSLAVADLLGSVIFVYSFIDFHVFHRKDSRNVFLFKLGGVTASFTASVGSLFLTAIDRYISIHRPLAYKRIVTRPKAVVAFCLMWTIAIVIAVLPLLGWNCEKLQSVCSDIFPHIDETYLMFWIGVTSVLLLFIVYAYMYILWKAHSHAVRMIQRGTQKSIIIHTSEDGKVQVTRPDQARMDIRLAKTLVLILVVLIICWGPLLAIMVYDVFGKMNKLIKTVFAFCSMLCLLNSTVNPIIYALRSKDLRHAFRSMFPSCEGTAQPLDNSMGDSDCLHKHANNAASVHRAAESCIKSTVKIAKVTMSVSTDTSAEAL
Summary of the method: as §1

Chain of human CB2 receptors (P34972 whole entry): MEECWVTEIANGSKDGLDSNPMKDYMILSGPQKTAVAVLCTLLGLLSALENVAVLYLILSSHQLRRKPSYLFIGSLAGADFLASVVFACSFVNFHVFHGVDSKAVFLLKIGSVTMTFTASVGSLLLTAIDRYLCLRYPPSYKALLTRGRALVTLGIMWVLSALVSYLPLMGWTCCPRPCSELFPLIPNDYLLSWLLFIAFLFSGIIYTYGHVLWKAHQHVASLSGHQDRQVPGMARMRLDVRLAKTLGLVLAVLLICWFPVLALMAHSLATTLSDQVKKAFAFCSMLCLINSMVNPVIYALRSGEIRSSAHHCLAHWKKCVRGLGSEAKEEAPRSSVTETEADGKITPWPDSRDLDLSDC

SMILES | EC50 (human CB2 receptors) [nM] | EC50 (human CB1 receptors) [nM]
O=C(N[C@H](c1cccnc1)C(F)(F)F)c1ccc(C2CC2)c(OCC2CC2)n1 [Example 218, (R)-5-Cyclopropyl-6-(cyclopropylmethoxy)-N-(2,2,2-trifluoro-1-(pyridin-3-yl)ethyl)-picolinamide] | 24.1 | > 10000
Cc1nc(C(NC(=O)c2ccc(C3CC3)c(OCC3CCOCC3)n2)C2CC2)no1 (centres unmarked) [Example 219, 5-Cyclopropyl-6-(tetrahydro-pyran-4-ylmethoxy)-pyridine-2-carboxylic acid [cyclopropyl-(5-methyl-[1,2,4]oxadiazol-3-yl)-methyl]-amide] | 10.8 | 2140
CCC(CC)(NC(=O)c1ccc(N(CC(F)(F)F)CC(F)(F)F)c(OCC2CC2)n1)C(=O)OC [Example 220, 2-({5-[Bis-(2,2,2-trifluoro-ethyl)-amino]-6-cyclopropylmethoxy-pyridine-2-carbonyl}-amino)-2-ethyl-butyric acid methyl ester] | 1.6 | 129
Cc1nc(C(NC(=O)c2ccc(N3CC(F)(F)C3)c(OCC3CC3)n2)C2CC2)no1 (centres unmarked) [Example 221, 6-Cyclopropylmethoxy-5-(3,3-difluoro-azetidin-1-yl)-pyridine-2-carboxylic acid [cyclopropyl-(5-methyl-[1,2,4]oxadiazol-3-yl)-methyl]-amide] | 12.8 | 10000
CN(C)C(=O)[C@H](CC1CC1)NC(=O)c1ccc(C2CC2)c(OCC2CC2)n1 [Example 222, 5-Cyclopropyl-6-cyclopropylmethoxy-pyridine-2-carboxylic acid ((S)-2-cyclopropyl-1-dimethylcarbamoyl-ethyl)-amide] | 3.2 | > 10000
O=C(NC(c1ccccn1)C(F)(F)F)c1ccc(C2CC2)c(OCC2CCOCC2)n1 (centres unmarked) [Example 223, 5-Cyclopropyl-6-(tetrahydro-pyran-4-ylmethoxy)-pyridine-2-carboxylic acid (2,2,2-trifluoro-1-pyridin-2-yl-ethyl)-amide] | 10.9 | 655
O=C(NC(c1ccccn1)C(F)(F)F)c1ccc(N2CC(F)(F)C2)c(OCC2CC2)n1 (centres unmarked) [Example 224, 6-Cyclopropylmethoxy-5-(3,3-difluoro-azetidin-1-yl)-pyridine-2-carboxylic acid (2,2,2-trifluoro-1-pyridin-2-yl-ethyl)-amide] | 22.2 | 648
CNC(=O)[C@@H](NC(=O)c1ccc(C2CC2)c(OCC2CC2)n1)c1ccccc1 [Example 225, 5-Cyclopropyl-6-cyclopropylmethoxy-pyridine-2-carboxylic acid ((−)-methylcarbamoyl-phenyl-methyl)-amide] | 48.4 | > 10000
CN(C)C(=O)[C@@H](NC(=O)c1ccc(C2CC2)c(OCC2CC2)n1)c1ccccc1 [Example 226, 5-Cyclopropyl-6-cyclopropylmethoxy-pyridine-2-carboxylic acid ((+)-dimethylcarbamoyl-phenyl-methyl)-amide] | 19.9 | > 10000
CN(C)C(=O)[C@H](NC(=O)c1ccc(C2CC2)c(OCC2CC2)n1)c1ccccc1 [Example 227, 5-Cyclopropyl-6-cyclopropylmethoxy-pyridine-2-carboxylic acid ((−)-dimethylcarbamoyl-phenyl-methyl)-amide] | 40.8 | > 10000
CNC(=O)[C@H](CC(C)(C)C)NC(=O)c1ccc(C(F)(F)F)c(OCC2CC2)n1 [Example 228, 6-Cyclopropylmethoxy-5-trifluoromethyl-pyridine-2-carboxylic acid ((S)-3,3-dimethyl-1-methylcarbamoyl-butyl)-amide] | 16.8 | > 10000
Cc1nc(C(NC(=O)c2ccc(C(F)(F)F)c(OCC3CC3)n2)C2CC2)no1 (centres unmarked) [Example 229, 6-Cyclopropylmethoxy-5-trifluoromethyl-pyridine-2-carboxylic acid [cyclopropyl-(5-methyl-[1,2,4]oxadiazol-3-yl)-methyl]-amide] | 52.4 | > 10000
CNC(=O)[C@H](CC(C)(C)C)NC(=O)c1ccc(C(F)(F)F)c(OCC2CCOCC2)n1 [Example 230, 6-(Tetrahydro-pyran-4-ylmethoxy)-5-trifluoromethyl-pyridine-2-carboxylic acid ((S)-3,3-dimethyl-1-methylcarbamoyl-butyl)-amide] | 29.4 | 1590
CC(C)C[C@H](NC(=O)c1ccc(C2CC2)c(OCC2CC2)n1)C(=O)N(C)C [Example 231, 5-Cyclopropyl-6-cyclopropylmethoxy-pyridine-2-carboxylic acid ((S)-1-dimethylcarbamoyl-3-methyl-butyl)-amide] | 1.4 | 678
CCC(CC)(NC(=O)c1ccc(C2CC2)c(OCC2CCCO2)n1)C(=O)OC (centres unmarked) [Example 233, 2-{[5-Cyclopropyl-6-(tetrahydro-furan-2-ylmethoxy)-pyridine-2-carbonyl]-amino}-2-ethyl-butyric acid methyl ester] | 0.1 | 71
CNC(=O)[C@H](CC(C)(C)C)NC(=O)c1ccc(N2CCC23COC3)c(OCC2CC2)n1 [Example 234, 6-Cyclopropylmethoxy-5-(6-oxa-1-aza-spiro[3.3]hept-1-yl)-pyridine-2-carboxylic acid ((S)-3,3-dimethyl-1-methylcarbamoyl-butyl)-amide] | 8.3 | > 10000
Cc1nc(C(C)(C)NC(=O)c2ccc(N3CCC34COC4)c(OCC3CC3)n2)no1 [Example 235, 6-Cyclopropylmethoxy-5-(6-oxa-1-aza-spiro[3.3]hept-1-yl)-pyridine-2-carboxylic acid [1-methyl-1-(5-methyl-[1,2,4]oxadiazol-3-yl)-ethyl]-amide] | 41.3 | > 10000
Cc1nc(C(NC(=O)c2ccc(N3CCC34COC4)c(OCC3CC3)n2)C2CC2)no1 (centres unmarked) [Example 236, 6-Cyclopropylmethoxy-5-(6-oxa-1-aza-spiro[3.3]hept-1-yl)-pyridine-2-carboxylic acid [cyclopropyl-(5-methyl-[1,2,4]oxadiazol-3-yl)-methyl]-amide] | 36.5 | > 10000
O=C(N[C@H](c1cccnc1)C(F)(F)F)c1ccc(N2CC(F)(F)C2)c(OCC2CC2)n1 [Example 237, 6-Cyclopropylmethoxy-5-(3,3-difluoro-azetidin-1-yl)-pyridine-2-carboxylic acid ((R)-2,2,2-trifluoro-1-pyridin-3-yl-ethyl)-amide] | 97.5 | > 10000
CCC(CC)(NC(=O)c1ccc(C(F)(F)F)c(OCC2CCOCC2)n1)C(=O)OC [Example 238, 2-Ethyl-2-{[6-(tetrahydro-pyran-4-ylmethoxy)-5-trifluoromethyl-pyridine-2-carbonyl]-amino}-butyric acid methyl ester] | 0.4 | 146
COC(=O)[C@@H](NC(=O)c1ccc(C2CC2)c(OCC2CC2)n1)C(C)(C)C [Example 239, (S)-2-[(5-Cyclopropyl-6-cyclopropylmethoxy-pyridine-2-carbonyl)-amino]-3,3-dimethyl-butyric acid methyl ester] | 1.1 | 91.9
O=C(N[C@@H](c1ccccn1)C(F)(F)F)c1ccc(C2CC2)c(OCC2CC2)n1 [Example 240, 5-Cyclopropyl-6-cyclopropylmethoxy-pyridine-2-carboxylic acid ((−)-2,2,2-trifluoro-1-pyridin-2-yl-ethyl)-amide] | 66.1 | > 10000
